Results on six compounds are retold here after ChEMBL document CHEMBL1140900, “Synthesis, biological evaluation, and docking studies of N-substituted acetamidines as selective inhibitors of inducible nitric oxide synthase” (J Med Chem, 2009).

The target of one assay is T1, Nitric oxide synthase 3 (Homo sapiens, UniProt P29474).
T1 sequence (P29474 whole entry): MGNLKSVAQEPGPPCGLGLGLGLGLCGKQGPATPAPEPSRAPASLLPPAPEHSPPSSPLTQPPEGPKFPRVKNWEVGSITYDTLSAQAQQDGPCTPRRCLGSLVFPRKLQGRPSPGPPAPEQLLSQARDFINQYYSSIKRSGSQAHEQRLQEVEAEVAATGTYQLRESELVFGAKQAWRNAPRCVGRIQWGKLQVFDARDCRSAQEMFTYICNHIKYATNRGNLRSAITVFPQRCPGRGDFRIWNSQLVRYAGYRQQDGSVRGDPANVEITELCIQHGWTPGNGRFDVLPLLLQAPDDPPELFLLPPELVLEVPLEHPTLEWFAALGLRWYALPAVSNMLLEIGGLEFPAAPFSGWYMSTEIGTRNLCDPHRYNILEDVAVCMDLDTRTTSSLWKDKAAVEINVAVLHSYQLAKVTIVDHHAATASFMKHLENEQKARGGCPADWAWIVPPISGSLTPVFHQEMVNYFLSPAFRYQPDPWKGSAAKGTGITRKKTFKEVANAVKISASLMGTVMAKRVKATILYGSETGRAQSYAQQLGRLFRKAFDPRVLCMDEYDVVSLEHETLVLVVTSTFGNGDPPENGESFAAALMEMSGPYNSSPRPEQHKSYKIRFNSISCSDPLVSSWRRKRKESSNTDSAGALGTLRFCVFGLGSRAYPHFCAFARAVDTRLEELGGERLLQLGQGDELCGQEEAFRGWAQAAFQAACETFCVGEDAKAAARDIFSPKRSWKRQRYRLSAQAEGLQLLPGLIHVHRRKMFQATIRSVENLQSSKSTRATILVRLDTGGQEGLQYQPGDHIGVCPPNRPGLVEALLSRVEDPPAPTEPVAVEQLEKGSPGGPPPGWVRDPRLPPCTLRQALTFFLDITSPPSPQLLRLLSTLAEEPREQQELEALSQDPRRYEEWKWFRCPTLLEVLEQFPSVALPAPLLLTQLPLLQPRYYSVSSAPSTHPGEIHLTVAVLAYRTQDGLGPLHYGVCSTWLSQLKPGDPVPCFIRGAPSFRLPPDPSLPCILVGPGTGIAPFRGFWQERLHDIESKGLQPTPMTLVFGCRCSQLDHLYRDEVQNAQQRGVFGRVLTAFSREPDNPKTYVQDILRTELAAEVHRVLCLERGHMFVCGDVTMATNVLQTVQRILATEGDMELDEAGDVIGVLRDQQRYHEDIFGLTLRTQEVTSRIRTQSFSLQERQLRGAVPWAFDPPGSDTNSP
Briefly: Inhibition of eNOS in LPS treated human THP1 cell homogenate assessed as conversion of L-[2,3-3H]arginine to L-[2,3-3H]citrulline pre-incubated 1 hr before LPS challenge by whole cell assay. The format is cell-based, THP-1.

The species entered for the next assay is Homo sapiens. Briefly: Selectivity ratio of IC50 for human eNOS to IC50 for human iNOS.
The target in assay [1] is Nitric oxide synthase, inducible (Homo sapiens, UniProt P35228). As to the kind of experiment: Inhibition of iNOS in LPS treated human THP1 cell homogenate assessed as conversion of L-[2,3-3H]arginine to L-[2,3-3H]citrulline pre-incubated 1 hr before LPS challenge by whole cell assay. Format: cell-based, THP-1.
Nitric oxide synthase, inducible, sequence (P35228 whole entry): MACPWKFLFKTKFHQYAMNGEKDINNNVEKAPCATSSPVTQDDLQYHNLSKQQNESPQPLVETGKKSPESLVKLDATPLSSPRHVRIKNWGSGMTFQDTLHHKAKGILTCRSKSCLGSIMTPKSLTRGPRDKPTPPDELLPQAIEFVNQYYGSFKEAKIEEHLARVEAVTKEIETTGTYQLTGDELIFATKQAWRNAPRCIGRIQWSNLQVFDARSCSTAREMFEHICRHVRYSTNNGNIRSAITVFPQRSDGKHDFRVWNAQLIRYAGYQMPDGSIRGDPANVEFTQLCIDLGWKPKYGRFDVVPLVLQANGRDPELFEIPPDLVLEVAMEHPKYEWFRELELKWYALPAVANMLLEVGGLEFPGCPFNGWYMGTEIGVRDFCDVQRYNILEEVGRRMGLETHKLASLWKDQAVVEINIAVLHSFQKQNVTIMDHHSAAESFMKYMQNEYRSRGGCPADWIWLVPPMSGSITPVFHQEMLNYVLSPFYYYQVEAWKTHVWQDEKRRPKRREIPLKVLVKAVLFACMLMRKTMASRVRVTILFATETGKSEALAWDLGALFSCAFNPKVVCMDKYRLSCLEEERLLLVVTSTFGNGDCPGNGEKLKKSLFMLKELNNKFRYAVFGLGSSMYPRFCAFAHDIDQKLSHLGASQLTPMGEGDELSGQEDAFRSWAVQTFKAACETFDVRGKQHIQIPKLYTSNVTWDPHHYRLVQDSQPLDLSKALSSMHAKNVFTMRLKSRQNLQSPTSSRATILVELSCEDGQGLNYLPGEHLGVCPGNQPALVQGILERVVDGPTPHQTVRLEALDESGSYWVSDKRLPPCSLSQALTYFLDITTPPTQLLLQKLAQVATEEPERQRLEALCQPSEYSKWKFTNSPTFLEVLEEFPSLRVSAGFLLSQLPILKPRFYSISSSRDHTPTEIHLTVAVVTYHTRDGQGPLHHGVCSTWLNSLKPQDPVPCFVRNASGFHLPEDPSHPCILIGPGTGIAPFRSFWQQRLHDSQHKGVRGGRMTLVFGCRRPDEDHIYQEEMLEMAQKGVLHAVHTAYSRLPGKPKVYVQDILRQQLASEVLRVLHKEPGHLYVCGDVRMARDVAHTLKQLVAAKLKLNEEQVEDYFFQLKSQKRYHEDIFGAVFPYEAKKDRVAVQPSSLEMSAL

Turning to `CC(=N)NCc1ccccc1`, the half-maximal inhibitory concentration (IC50) was 350 µM on Nitric oxide synthase 3 and 200 nM in assay [1]. Further, in the assay filed under Homo sapiens, the Ratio IC50 was found to be 1750.
For the compound `CCOC(=O)N1CCC(NC(C)=N)CC1`, the 50% inhibitory concentration (IC50) at Nitric oxide synthase 3 was 90 µM; in assay [1] it was 250 nM. In addition, the Ratio IC50 in the assay filed under Homo sapiens amounted to 360.
In the case of `CC(=N)N[C@@H](C)c1ccccc1`, the IC50 at Nitric oxide synthase 3 came to 300 µM; in assay [1], 450 nM. Besides, the Ratio IC50 in the assay filed under Homo sapiens was determined as 666.
With `CCC(NC(C)=N)c1ccccc1` (racemic), the half-inhibitory concentration (IC50) came out at 80 µM on Nitric oxide synthase 3 and 250 nM in assay [1]. In addition, the Ratio IC50 in the assay listed under Homo sapiens is 320.
Turning to `CC(=N)NCc1cccc(CNS(=O)(=O)c2ccc(C)cc2)c1`, the IC50 at Nitric oxide synthase 3 was 300 µM; in assay [1], 500 nM. For the same compound, the Ratio IC50 in the assay filed under Homo sapiens was 600.
`CC(=N)NCc1cccc(CNCc2ccncc2)c1`: the IC50 on Nitric oxide synthase 3 came to 20 µM; in assay [1] it was 350 nM. In addition, the Ratio IC50 in the assay listed under Homo sapiens came to 57.
